# Counter-ions that a name gives are not always drawn. Where no end group is shown, it is not given here. [ ]: non-standard residue; d: D form. Sta = CC(C)C[C@H](N)[C@@H](O)CC(=O)O; Hyp = O=C(O)[C@@H]1C[C@@H](O)CN1; Nip = nipecotic acid residue; Orn = NCCC[C@H](N)C(=O)O; Dab = NCC[C@H](N)C(=O)O; Imid = not defined here; Dap = NC[C@H](N)C(=O)O
# Tested on: PAR-2
# Assay: Inhibition of PAR-2 activating peptide (AP2) calcium signaling in cells pretreated with antagonist
# Type: cell-based, human
# Set-up: key to PAR-2 AP2 Signaling Treated/Control (T/C) / PAR-2 AP2 Signaling Treated/Control: AUC of calcium mobilization, treated ÷ control wells
# Conditions: AUC of calcium mobilization treated/control, initially screened at 1 mM compound; for PAR-2 AP2 Signaling Treated/Control: mimetic antagonists; for PAR-2 AP2 Signaling Treated/Control (T/C): peptides
# Method: In order to assess the potential of peptides and molecules selected above to block PAR-2 signaling, cells were pretreated with potential antagonist peptides for a predetermined amount of time and were subsequently treated with various GPCR agonists. Confluent Lewis lung carcinoma (LLC) cells were loaded for 30-60 minutes with the fluorescent dye Fluo-4. Final concentration 4 uM Fluo-4, 0.02% pluronic acid in physiological buffer. Cells were then washed with assay buffer, (HBSS containing 1 mM CaCl2, 1 mM MgSO4, and 2.5 mM probenecid). Cells were stimulated with various doses of PAR-2 activating peptide, PAR-1 activating peptide or ATP. Fluorescence was monitored using a Wallac 1470 fluorescent plate reader. (See Al-ani et. al Journal of Pharmacology and Experimental Therapeutics 290:2, 753-760). Additional compound screening was performed using U87-MG human glioma cells. In this assay cells were labeled with FLIPR Calcium 3 dye (Component A), which was dissolved in 10 mls of Assay Buffer without Probenecid. Loading buffer was prepared by diluting Component A with an additional 90 mls of Assay Buffer without Probenecid, giving a total volume of a 100 ml. For plate loading, 11 mls of FLIPR Calcium 3 dye (Component A) is placed into a 15 ml conical tube+110 μl of 250 mM Probenecid, at a final in-well working volume of 2.5 mM. Finally, 50 μl of Calcium 3 dye was added wells containing 100 μl media, and incubated 1 hr, 37° C., 5% CO2. Calcium signaling was then measured using a Flexstation II (Molecular Devices) following manufacturer's instructions.
# Potential antagonist compounds were initially screened at 1 mM compound concentration. Those compounds with activity were then subjected to additional confirmatory testing. Activity is reported as treated/controlled (T/C) where the area under the curve (AUC) of calcium mobilization plots in treated wells is divided by the AUC of calcium mobilization plots in control wells to generate a measure of inhibition.
Compound,PAR-2 AP2 Signaling Treated/Control,PAR-2 AP2 Signaling Treated/Control (T/C)
CC(C)CC(=O)N1CC2CN(C(=O)Cc3ccc(N)cc3)CC2C1 (stereo not drawn) [ENMD-1763],0.83,–
"CC(C)CC(=O)Nc1nc(CC(=O)NCCCCCN)cs1 [ENMD-1549, N-{4-[(5-Amino-pentylcarbamoyl)-methyl]-thiazol-2-yl}-3-methyl-butyramide]",0.26,–
"NCCCCC(=O)NCc1cc(C(=O)NCC2CCCCC2)no1 [ENMD-1558, 5-[(5-amino-pentanoylamino)-methyl]-isoxazole-3-carboxylic acid cyclohexylmethyl-amide]",0.60,–
LIG-Dap (LIG[Dap]) [ENMD-1027],–,0.30
"Cl.NCCCOc1ccc(OCC2CCCCC2)cc1 [ENMD-1567, 3-(4-(cyclohexylmethoxy)phenoxy)propan-1-amine hydrochloride]",0.08,–
L-NiP-K (Leu-[Nip]-Lys) [ENMD-1058],–,1.58
L-Nip-GK (L[Nip]GK) [ENMD-1059],–,0.97
"NCCCCCCn1cc(CCC2CCCCC2)nn1 [ENMD-1520, 1-(6-aminohexyl)-4-(2-cyclohexylethyl)-1,2,3-triazole]",0.36,–
"CC(C)CCCC(=O)N1CCN(C(=O)CCCCCN)CC1 [ENMD-1038, N^1-[5′-methylhexanoyl]-N^4-[6′-aminohexanoyl]-piperazine]",0.35,–
L-HyP-GK (L[Hyp]GK) [ENMD-1061],–,1.16
"NCCCCCC(=O)Nc1nc(CC(=O)NCC2CCCCC2)cs1 [ENMD-1560, 6-amino-hexanoic acid {4-[(cyclohexylmethyl-carbamoyl)-methyl]-thiazol-2-yl}-amide]",0.48,–
"NCCCCCNC(=O)Cc1csc(NC(=O)CC2CCCCC2)n1 [ENMD-1559, N-(5-amino-pentyl)-2-[2-(2-cyclohexyl-acetyl-amino)-thiazol-4-yl]-acetamide]",0.52,–
"NCCCCC(=O)Nc1ccc(C(=O)NCC2CCCCC2)cc1 [ENMD-1568, 4-(5-aminopentanamide)-N-(cyclohexylmethyl)-benzamide]",0.92,–
"NCCCCNC(=O)c1ccc(CCC2CCCCC2)cc1 [ENMD-1509, N-(4-aminobutyl)-4-(2-cyclohexylethyl)-benzamide]",0.71,–
LIGT [ENMD-1050],–,0.70
"IG-Dab (Ile-Gly-[Dab]) [ENMD-1024, Dab=diamino butanoic acid]",–,0.27
L-Sta-GK (L[Sta]GK) [ENMD-1057],–,1.40
"Nc1ccc(CC(=O)N2CC3CN(C(=O)CC4CCCCC4)CC3C2)cc1 (stereo not drawn) [ENMD-1777, 1-(2-(2-(4-aminophenyl)acetyl-hexahydro-pyrrolo[3,4-c]pyrrol-5-(1H)-yl)-2-cyclohexyl)ethan-1-one]",0.64,–
"Nc1ccc(CCn2c(=O)n(CCC3CCCCC3)c3ccccc32)cc1 [ENMD-1574, 1-(4-aminophenethyl)-3-(2-cyclohexylethyl)-1H-benzo[d]imidazole-2(3H)-one]",0.01,–
"NCCCCNC(=O)c1ccc(NC(=O)C2CCCCC2)cc1 [ENMD-1511, N-(4-aminobutyl)-4-(cyclohexanecarboxamido)-benzamide hydrochloride]",0.13,–
"CC(C)CCc1ccc(C(=O)NCCCCN)cc1 [ENMD-1552, N-(4-aminobutyl)-4-isopentyl-benzamide]",0.10,–
"CC(C)CC(=O)Nc1ccc(NC(=O)CCCCCN)cc1 [ENMD-1391, N-(4-(3-methylbutanamido)phenyl)-6-aminohexanamide]",0.01,–
"NCCCCNC(=O)c1ccc(OCC2CCCCC2)cc1 [ENMD-1406, N-(4-aminobutyl)-4-(cyclohexylmethoxy)-benzamide]",0.24,–
LIGN [ENMD-1047],–,0.88
"Cl.O=C(CC1CCCCC1)N1CCN(C(=O)C2CNCCO2)CC1 (stereo not drawn) [ENMD-1780, N^1-2-cyclohexylethanoyl-N-4-morpholine-2-carbonyl-piperazine hydrochloride]",0.86,–
"CC(C)CCC(=O)N1CCN(C(=O)CCCCCN)CC1 [ENMD-1041, N^1-[4′-methylpentanoyl]-N^4-[6′-aminohexanoyl]-piperazine]",0.17,–

Compound,PAR-2 AP2 Signaling Treated/Control,PAR-2 AP2 Signaling Treated/Control (T/C)
"CC(C)CNC(=O)C1CN(C(=O)CCCCCN)CCO1 (stereo not drawn) [ENMD-1524, 4-(6-Amino-hexanoyl)-morpholine-2-carboxylic acid isobutyl-amide]",0.73,–
"LIG-Orn (LIG[Orn]) [ENMD-1028, Orn=ornithine]",–,0.36
CC(C)CC(=O)N1CC2CN(C(=O)CCCCCN)CC2C1 (stereo not drawn) [ENMD-1764],0.96,–
LIGQ [ENMD-1048],–,0.59
IG-dK (Ile-Gly-[dK]) [ENMD-1087],–,0.33
"CC(C)CNC(=O)[C@H]1CC[C@@H](NC(=O)CCCCCN)C1 [ENMD-1536, N-isobutyl-3S-(6-aminohexanamido)-cyclopentane-1R-carboxamide]",0.42,–
"NCCCCNC(=O)c1cnc(NCC2CCCCC2)cn1 [ENMD-1571, 4-aminobutyl-6-cyclohexanemethylamino-2-pyrazine amide]",0.81,–
"NCCCCOc1ccc(OCc2ccccc2)cc1 [ENMD-1566, 4-(4-(benzyloxy)phenoxy)butan-1-amine hydrochloride]",0.01,–
L-Imid-K (Leu-[Imid]-Lys; reading uncertain; also: printed as L-Imid-K) [ENMD-1062],–,0.94
"CCC(=O)N1CCN(C(=O)CCCCCN)CC1 [ENMD-1037, N′-propanoyl-N-4-[6′-aminohexanoyl]-piperazine]",0.55,–
"NCCCCCCNC(=O)c1ccc2nc(NCC3CCCCC3)[nH]c2c1 [ENMD-1526, 2-(Cyclohexylmethyl-amino)-3H-benzoimidazole-5-carboxylic acid (6-amino-hexyl)-amide]",0.64,–
"CC(C)CNC(=O)c1ccc(-c2ccc(NC(=O)CCCCCN)cc2)cc1 [ENMD-1527, 4′-(6-amino-hexanoylamino)-biphenyl-4-carboxylic acid isobutyl-amide]",0.64,–
"O=C(Cc1ccncc1)N1CCN(C(=O)CC2CCCCC2)CC1 [ENMD-1079, 1-(4-(2-cyclohexylacetyl)piperazin-1-yl)-2-(pyridin-4-yl)-acetaldehyde]",0.90,–
"CC(C)CC(=O)N1CCOC(C(=O)NCCCCCCN)C1 (stereo not drawn) [ENMD-1522, 4-(3-Methyl-butyryl)-morpholine-2-carboxylic acid (6-amino-hexyl)-amide]",1.00,–
"CC(C)Nc1ccc(CCn2c(=O)n(CCC3CCCCC3)c3ccccc32)cc1 [ENMD-1564, 1-[4-(isopropylamine)-phenethyl]-3-(2-cyclo-hexylethyl)-1H-benzo[d]imidazole-2(3H)-one]",1.16,–
"CC(C)CC(=O)NC1CN(C(=O)CCCCCN)C1 [ENMD-1516, N-(6-amino-1-hexanoylazetidin3-yl)-3-methylbutanamide]",0.87,–
"CCCC(=O)N1CCN(C(=O)CCCCCN)CC1 [ENMD-1036, N^1-butanoyl-N-4-[6′-aminohexanoyl]-piperazine]",0.55,–
"Cl.O=C(CC1CCCCC1)Nc1ccc(NC(=O)C2CCNCC2)cc1 [ENMD-1772, N-(4-(2-cyclohexylacetamido)phenyl) piperidine-4-carboxamide hydrochloride]",0.73,–
LIPK [ENMD-1052],–,0.89
"CC(C)COc1ccc(C(=O)NCCCN)cc1 [ENMD-1408, N-(3-aminopropyl)-4-isobutoxy-benzamide]",0.35,–
"CC(C)COc1ccc(C(=O)NCCCCN)cc1 [ENMD-1405, N-(4-aminobutyl)-4-isobutoxy-benzamide]",0.13,–
"CC(C)CCNC(=O)C1CCS(=O)(=O)N1CCCCCCN (stereo not drawn) [ENMD-1546, N-(6-aminohexyl)isothiazolidine-1,1-dioxide-3-carboxylic acid isoamylamide]",0.97,–
"CC(C)CNC(=O)c1ccc(-c2ccc(NC(=O)CCCCCN(C)C)cc2)cc1 [ENMD-1529, 4′-(6-Dimethylamino-hexanoylamino)-biphenyl-4-carboxylic acid isobutyl-amide]",0.35,–
"CC(C)CCc1cn(CCCCCCN)nn1 [ENMD-1519, 1-(6-aminohexyl)-4-(3-methylbutyl)-1,2,3-triazole]",0.65,–
LIGE [ENMD-1046],–,0.34
